Earlier results as cited in PMC3237458, “PEGylation Potentiates the Effectiveness of an Antagonistic Peptide That Targets the EphB4 Receptor with Nanomolar Affinity” (PLoS ONE, 2011).
Square brackets hold non-standard residues; d marks the D form. Peptide text beside a SMILES is read from it. * marks the point of attachment. Biotin = O=C1N[C@H]2[C@H](CS[C@H]2CCCCC(=O)*)N1; Ahx = NCCCCCC(=O)O

Columns and labels:
Eph receptors = settings: cited from earlier work
Description: (§1) Inhibiting EphB4-ephrin-B2 interaction could therefore be useful for diverse medical applications. […] A 15 amino acid-long EphB4 antagonistic peptide, TNYL-RAW (TNYLFSPNGPIARAW), could represent an alternative to the large EphB4 e ...

human EphB4 = settings: human EphB4, isothermal titration calorimetry; cited from earlier work
Description: as §1

mouse EphB4 = settings: mouse EphB4, surface plasmon resonance; cited from earlier work
Description: as §1

In the case of CC[C@H](C)[C@H](NC(=O)[C@@H]1CCCN1C(=O)CNC(=O)[C@H](CC(N)=O)NC(=O)[C@@H]1CCCN1C(=O)[C@H](CO)NC(=O)[C@H](Cc1ccccc1)NC(=O)[C@H](CC(C)C)NC(=O)[C@H](Cc1ccc(O)cc1)NC(=O)[C@H](CC(N)=O)NC(=O)[C@@H](N)[C@@H](C)O)C(=O)N[C@@H](C)C(=O)N[C@@H](CCCNC(=N)N)C(=O)N[C@@H](C)C(=O)N[C@@H](Cc1c[nH]c2ccccc12)C(=O)NCCCCCC(=O)N[C@@H](CCCCNC(=O)CCCC[C@@H]1SC[C@@H]2NC(=O)N[C@@H]21)C(N)=O [TNYL-RAW] (H-TNYLFSPNGPIARAW[Ahx]K(Biotin)-NH2; N-terminus and C-terminus assumed), the “Selectivity of binding among Eph receptors” value (Eph receptors) is given as “selectively binds to EphB4 but not any other Eph receptor”, the Kd (human EphB4) is given as 0.07 µM and the Kd (mouse EphB4) is given as 0.003 µM.
